Data published in ChEMBL document CHEMBL4052797, “N-alkyl-[1,1'-biphenyl]-2-sulfonamide derivatives as novel broad spectrum anti-epileptic drugs with efficacy equivalent to that of sodium valproate” (2017).
Calls of active or inactive are those of the source.

How the values were obtained:
Mus musculus [1] = assay: Anticonvulsant activity in maximal electroshock induced seizure mouse model assessed as reduction in convulsions at 100 mg/kg, po; assay type: functional, organism-based
Mus musculus [2] = assay: Anticonvulsant activity in maximal electroshock induced seizure mouse model assessed as reduction in convulsions at 50 mg/kg, po; assay type: functional, organism-based
Mus musculus [3] = assay: Anticonvulsant activity in subcutaneous pentylenetetrazole-induced seizure mouse model assessed as reduction in convulsions at 100 mg/kg, po; assay type: functional, organism-based
Mus musculus [4] = assay: Anticonvulsant activity in maximal electroshock induced seizure mouse model assessed as reduction in convulsions at 25 mg/kg, po; assay type: functional, organism-based
Mus musculus [5] = assay: Anticonvulsant activity in subcutaneous pentylenetetrazole-induced seizure mouse model assessed as reduction in convulsions at 50 mg/kg, po; assay type: functional, organism-based
Mus musculus [6] = assay: Neurotoxicity in po dosed mouse by rotarod test; assay type: functional
Rattus norvegicus [7] = assay: Anticonvulsant activity in amygdala kindling rat model assessed as change in after discharge duration at 600 mg/kg, po (reference value: -5.5%); assay type: functional
Rattus norvegicus [8] = assay: Anticonvulsant activity in amygdala kindling rat model assessed as change in after discharge duration at 300 mg/kg, po (reference value: -5.5%); assay type: functional
Rattus norvegicus [9] = assay: Anticonvulsant activity in amygdala kindling rat model assessed as change in after discharge threshold at 600 mg/kg, po relative to control; assay type: functional
Mus musculus [10] = assay: Anticonvulsant activity in po dosed maximal electroshock induced seizure mouse model assessed as reduction in convulsions; assay type: functional
Mus musculus [11] = assay: Anticonvulsant activity in po dosed 6-Hz induced seizure mouse model; assay type: functional
Rattus norvegicus [12] = assay: Anticonvulsant activity in amygdala kindling rat model assessed as change in after discharge threshold at 300 mg/kg, po relative to control; assay type: functional
Rattus norvegicus [13] = assay: Anticonvulsant activity in amygdala kindling rat model assessed as change in after discharge duration at 100 mg/kg, po (reference value: -5.5%); assay type: functional
Rattus norvegicus [14] = assay: Anticonvulsant activity in amygdala kindling rat model assessed as change in after discharge threshold at 100 mg/kg, po relative to control; assay type: functional
Mus musculus [15] = assay: Therapeutic index, ratio of TD50 for neurotoxicity in po dosed mouse to ED50 for po dosed 6-Hz induced seizure mouse model
Mus musculus [16] = assay: Therapeutic index, ratio of TD50 for neurotoxicity in po dosed mouse to ED50 for po dosed maximal electroshock induced seizure mouse model
Rattus norvegicus [17] = assay: Anticonvulsant activity in amygdala kindling rat model assessed as change in after discharge duration at 30 mg/kg, po (reference value: -5.5%); assay type: functional
Rattus norvegicus [18] = assay: Anticonvulsant activity in amygdala kindling rat model assessed as change in after discharge threshold at 30 mg/kg, po relative to control; assay type: functional
Mus musculus [19] = assay: Anticonvulsant activity in po dosed subcutaneous pentylenetetrazole-induced seizure mouse model assessed as reduction in convulsions; assay type: functional
Mus musculus [20] = assay: Anticonvulsant activity in subcutaneous pentylenetetrazole-induced seizure mouse model assessed as reduction in convulsions at 25 mg/kg, po; assay type: functional, organism-based
Mus musculus [21] = assay: Anticonvulsant activity in ip dosed subcutaneous pentylenetetrazole-induced seizure mouse model assessed no observable episode of clonic seizure; assay type: functional
Mus musculus [22] = assay: Anticonvulsant activity in ip dosed maximal electroshock induced seizure mouse model assessed as suppression in hindlimb tonic extension; assay type: functional

With CNS(=O)(=O)c1ccccc1-c1ccc(F)cc1 the Activity (Mus musculus [1]) was “Active”, the Activity (Mus musculus [2]) was “Active” and the Activity (Mus musculus [3]) was “inactive”.

For CN(C)S(=O)(=O)c1ccccc1-c1ccccn1, the Activity (Mus musculus [3]) was “inactive”.

For CN(C)S(=O)(=O)c1ccccc1-c1cccnc1, the Activity (Mus musculus [3]) was “inactive”.

In the case of CNS(=O)(=O)c1ccccc1-c1cccc(Cl)c1, the Activity (Mus musculus [4]) was “inactive” and the Activity (Mus musculus [1]) was “Active”.

CCCNS(=O)(=O)c1ccccc1-c1ccccc1 was tested, and the Activity (Mus musculus [1]) was “Active”.

For CN(C)S(=O)(=O)c1ccccc1-c1ccccc1, the Activity (Mus musculus [5]) was “inactive” and the Activity (Mus musculus [2]) was “inactive”.

In the case of CCCC(CCC)C(=O)[O-].[Na+] [VALPROATE SODIUM], the TD50 (Mus musculus [6]) was 396 mg/kg, the Activity (Rattus norvegicus [7]) was -22.5% and the Activity (Rattus norvegicus [8]) was 11.1%. It also gave an Activity (Rattus norvegicus [9]) of 81.3%, an ED50 (Mus musculus [10]) of 337 mg/kg and an ED50 (Mus musculus [11]) of 394 mg/kg. The Activity (Rattus norvegicus [12]) was -5.4%.

With CNS(=O)(=O)c1ccccc1-c1ccccc1F the Activity (Mus musculus [4]) was “Active”, the TD50 (Mus musculus [6]) was 107 mg/kg and the Activity (Mus musculus [1]) was “Active”. For the same molecule, the Activity (Rattus norvegicus [13]) was -1.4%, the Activity (Rattus norvegicus [14]) was 352.5% and the “Ratio TD50/ED50” value (Mus musculus [15]) was 2. The Activity (Mus musculus [5]) was “Active”, the “Ratio TD50/ED50” value (Mus musculus [16]) was 6.7 and the ED50 (Mus musculus [10]) was 16 mg/kg. The ED50 (Mus musculus [11]) was 53 mg/kg, the Activity (Mus musculus [2]) was “Active” and the Activity (Mus musculus [3]) was “Active”.

For CNS(=O)(=O)c1ccccc1-c1ccccc1Cl, the Activity (Mus musculus [1]) was “Active” and the Activity (Mus musculus [2]) was “Active”.

In the case of CN(C)S(=O)(=O)c1ccccc1-c1ccoc1, the Activity (Mus musculus [1]) was “inactive”.

Work on NS(=O)(=O)Cc1noc2ccccc12 [ZONISAMIDE] yielded an Activity (Rattus norvegicus [17]) of 7%, an Activity (Rattus norvegicus [13]) of -37.6% and an Activity (Rattus norvegicus [14]) of 45.9%. The Activity (Rattus norvegicus [18]) was 5.1%, the ED50 (Mus musculus [10]) was 20 mg/kg and the ED50 (Mus musculus [19]) was > 500 mg/kg.

In the case of CNS(=O)(=O)c1ccccc1-c1ccccc1OC, the Activity (Mus musculus [1]) was “inactive” and the Activity (Mus musculus [3]) was “inactive”.

In the case of O=S(=O)(c1ccccc1-c1ccccc1)C(F)(F)F, the Activity (Mus musculus [1]) was “inactive” and the Activity (Mus musculus [3]) was “inactive”.

CCS(=O)(=O)c1ccccc1-c1ccccc1 was tested, and the Activity (Mus musculus [1]) was “inactive” and the Activity (Mus musculus [3]) was “Active”.

CNS(=O)(=O)c1ccccc1-c1ccc(OC)cc1 was tested, and the Activity (Mus musculus [1]) was “inactive” and the Activity (Mus musculus [3]) was “inactive”.

CS(=O)(=O)c1ccccc1-c1ccccc1F was tested, and the Activity (Mus musculus [1]) was “Active”.

With CN(C)S(=O)(=O)c1ccccc1-c1ccco1 the Activity (Mus musculus [1]) was “inactive”.

For CNS(=O)(=O)c1ccccc1-c1cccc(F)c1, the Activity (Mus musculus [4]) was “inactive” and the Activity (Mus musculus [1]) was “Active”.

In the case of CCNS(=O)(=O)c1ccccc1-c1ccccc1, the Activity (Mus musculus [4]) was “inactive”, the Activity (Mus musculus [1]) was “Active” and the Activity (Mus musculus [20]) was “inactive”. For the same molecule, the Activity (Mus musculus [2]) was “Active”.

For CNS(=O)(=O)c1ccccc1-c1ccccc1, the Activity (Mus musculus [1]) was “Active”, the Activity (Mus musculus [5]) was “inactive” and the Activity (Mus musculus [2]) was “Active”.

CN(C)S(=O)(=O)c1cccc(Cl)c1 was tested, and the Activity (Mus musculus [2]) was “Active”.

CNS(=O)(=O)c1ccccc1-c1ccc(Cl)cc1 was tested, and the Activity (Mus musculus [4]) was “inactive” and the Activity (Mus musculus [1]) was “Active”.

CN(C)S(=O)(=O)c1ccccc1-c1ccncc1 was tested, and the Activity (Mus musculus [1]) was “inactive”.

For CC1(C)O[C@@H]2[C@@H](CO[C@@]3(COS(N)(=O)=O)OC(C)(C)O[C@@H]23)O1 [TOPIRAMATE], the ED50 (Mus musculus [21]) was > 800 mg/kg and the ED50 (Mus musculus [22]) was 33 mg/kg.

CN(C)S(=O)(=O)c1ccccc1-c1cccs1 was tested, and the Activity (Mus musculus [1]) was “inactive” and the Activity (Mus musculus [3]) was “inactive”.

In the case of NS(=O)(=O)c1ccccc1-c1ccccc1, the Activity (Mus musculus [1]) was “Active” and the Activity (Mus musculus [2]) was “Active”.

CNS(=O)(=O)c1ccccc1-c1cccc(OC)c1 was tested, and the Activity (Mus musculus [1]) was “inactive”.
